# Source: US12629348B2, “Method and composition for treating osteoarthritis” (Vireo Systems, Inc., priority 2013, dated 2026)
# System: cultured canine chondrocytes
# Test: TNFα release in cultured canine chondrocytes challenged with IL1b
# Assay type: cell-based
# Conditions: IL1b challenge; FIG. 4
# Experimental: The study involved the use of cultured canine chondrocytes (i.e., cells within the joint that are activated during OA). The canine chondrocytes were subjected to an inflammatory challenge in the form of cytokine Interleukin 1 beta (“IL1b”). The canine chondrocytes were then treated with various anti-inflammatory compounds including Alpha-GEE; glucosamine; a TNFα receptor antagonist; and a NSAID (Rimadyl). Alpha-GEE was administered in concentrations ranging from 10 μM to 1000 μM. The resulting effects of the various treatments on both PGE2 release and TNFα release were examined.
# A similar time dependent decrease in TNFα release was also observed in chondrocytes treated with Alpha-GEE, as shown in FIG. 4.
smiles,measurement,value
N[C@H]1C(O)O[C@H](CO)[C@@H](O)[C@@H]1O (some centres unmarked) [glucosamine],effect on TNFα release in canine chondrocytes,no significant effect
CC(C(=O)O)c1ccc2c(c1)[nH]c1ccc(Cl)cc12 (centres unmarked) [Rimadyl],effect on TNFα release in canine chondrocytes,significant increase
